Data from PMC9934367, “Functional impact of subunit composition and compensation on Drosophila melanogaster nicotinic receptors–targets of neonicotinoids” (PLOS Genetics, 2023).
Like-named read-outs stand apart in the source and are kept apart here.

Tests used:
[1] = tested on: T1, Dα1/Dα2/Dα3/Dβ1/Dβ2 nAChR; experiment: Voltage-clamp electrophysiology, nAChR expressed in X. laevis oocytes; assay type: cell-based, D. melanogaster; conditions: mean ± standard error (n = 5)
T1 construct: Dα1 (NP_524481); Dα2 (NP_524482); Dβ1 (NP_523927); Dβ2 (NP_524483); expressed in transfected cells; host or cells: Xenopus laevis oocytes (cRNA injection)
Method: (§1) cDNAs of the nAChR subunits and co-factors were cloned into pcDNA3.1 (+) vector (Thermo Fisher Scientific). The accession numbers of the nAChR subunits and cofactors are as follows: Dα1 (NP_524481), Dα2 (NP_524482), Dα3 (NP_525079), Dα4 (CAB77445), Dβ1 (NP_523927), Dβ2 (NP_524483), Dβ3 (NP_525098), DmRIC-3 (CAP16647), DmUNC-50 (NP_649813), and DmTMX3 (NP_648847). cRNAs were prepared using the mMESSAGE mMACHINE T7 ULTRA Transcription Kit (Thermo Fisher Scientific, #AM1345) according to the manual with the cDNA template which was cut with appropriate restriction enzymes at the 3’ end of the cDNA.
(§2) We minimised the use of X. laevis according to the UK Animals (Scientific Procedures) Act, 1986. […] Oocytes were defolliculated after collagenase treatment in Ca^2+-free standard oocyte saline (Ca^2+-free SOS). cRNAs of the nAChR subunits and co-factors mixed at a concentration of 0.1 mg/mL was injected into oocytes at a volume of 50 nL. Then the oocytes were incubated in the incubation medium (SOS supplemented with sodium pyruvate (Nacalai Tesque, #13058–12), penicillin-streptomycin (MilliporeSigma, #P4333), gentamycin (Nacalai Tesque, #16672–04), and 4% horse serum (Thermo Fisher Scientific, #26050–070) for 3−4 days prior to electrophysiology.
(§3) Each defolliculated X. laevis oocyte was secured in a Perspex recording chamber and perfused with the standard oocyte saline (SOS) containing 0.5 μM atropine (SOSA) at a flow rate of 7−10 mL/min [48]. Two glass electrodes filled with 2 M KCl were impaled into each oocyte and the membrane potential was clamped at -100 mV. […] The peak amplitude of the response was measured and analysed by pCLAMP (Molecular Devices, USA).
(§4) Y=Imax/1+10^(logEC50‐X)nH
(§5) Where Y is the normalised response, X is log[ligand (M)], EC50 is the half maximal concentration (M), Imax is the maximum normalised response and nH is the Hill coefficient.

[2] = biological target: T2, Dα1/Dα2/Dβ1 nAChR (Drosophila melanogaster, UniProt P04755+P09478+P17644); experiment: as above; assay type: cell-based, D. melanogaster; conditions: mean ± standard error (n = 5)
T2 construct: Dα1 (NP_524481); Dα2 (NP_524482); Dβ1 (NP_523927); expressed in transfected cells; host or cells: Xenopus laevis oocytes (cRNA injection)
Method: as §1, §2, §3, §4, §5

[3] = biological target: T3, Dα1/Dα2/Dβ1/Dβ2 nAChR (Drosophila melanogaster, UniProt P04755+P09478+P17644+P25162); experiment: as above; assay type: cell-based, D. melanogaster; conditions: mean ± standard error (n = 5)
T3 construct: Dα1 (NP_524481); Dα2 (NP_524482); Dβ1 (NP_523927); Dβ2 (NP_524483); expressed in transfected cells; host or cells: Xenopus laevis oocytes (cRNA injection)
Method: as §1, §2, §3, §4, §5

[4] = biological target: T4, Dα1/Dβ1 nAChR (Drosophila melanogaster, UniProt P04755+P09478); experiment: as above; assay type: cell-based, D. melanogaster; conditions: mean ± standard error (n = 5)
T4 construct: Dα1 (NP_524481); Dβ1 (NP_523927); expressed in transfected cells; host or cells: Xenopus laevis oocytes (cRNA injection)
Method: as §1, §2, §3, §4, §5

[5] = biological target: T5, Dα1/Dβ1/Dβ2 nAChR (Drosophila melanogaster, UniProt P04755+P09478+P25162); experiment: as above; assay type: cell-based, D. melanogaster; conditions: for Imax: mean ± standard error (n = 5)
T5 construct: Dα1 (NP_524481); Dβ1 (NP_523927); Dβ2 (NP_524483); expressed in transfected cells; host or cells: Xenopus laevis oocytes (cRNA injection)
Method: as §1, §2, §3, §4, §5

[6] = biological target: T6, Dα2/Dα3/Dβ1 nAChR (Drosophila melanogaster, UniProt P04755+P17644+Q9W3G6); experiment: as above; assay type: cell-based, D. melanogaster; conditions: Dα2/Dα3/Dβ1 nAChR, mean ± standard error (n = 5)
T6 construct: Dα2 (NP_524482); Dβ1 (NP_523927); expressed in transfected cells; host or cells: Xenopus laevis oocytes (cRNA injection)
Method: as §1, §2, §3, §4, §5

[7] = biological target: T7, Dα2/Dα3/Dβ1/Dβ2 nAChR (Drosophila melanogaster, UniProt P04755+P17644+P25162+Q9W3G6); experiment: as above; assay type: cell-based, D. melanogaster; conditions: mean ± standard error (n = 5)
T7 construct: Dα2 (NP_524482); Dβ1 (NP_523927); Dβ2 (NP_524483); expressed in transfected cells; host or cells: Xenopus laevis oocytes (cRNA injection)
Method: as §1, §2, §3, §4, §5

[8] = biological target: T8, Dα3/Dβ1/Dβ2 nAChR (Drosophila melanogaster, UniProt P04755+P25162+Q9W3G6); experiment: as above; assay type: cell-based, D. melanogaster; conditions: Dα3/Dβ1/Dβ2 nAChR; for Imax: mean ± standard error (n = 5)
T8 construct: Dβ1 (NP_523927); Dβ2 (NP_524483); expressed in transfected cells; host or cells: Xenopus laevis oocytes (cRNA injection)
Method: as §1, §2, §3, §4, §5

[9] = biological target: T9, Dα1/Dα2/Dβ1/Dβ2/Dβ3 nAChR; experiment: as above; assay type: cell-based, D. melanogaster; conditions: mean ± standard error (n = 5); for Imax: normalised to maximum ACh response
T9 construct: Dα1 (NP_524481); Dα2 (NP_524482); Dβ1 (NP_523927); Dβ2 (NP_524483); expressed in transfected cells; host or cells: Xenopus laevis oocytes (cRNA injection)
Method: as §1, §2, §3, §4, §5

[10] = biological target: T10, Dα1/Dα3/Dβ1/Dβ2/Dβ3 nAChR; experiment: as above; assay type: cell-based, D. melanogaster; conditions: mean ± standard error (n = 5)
T10 construct: Dα1 (NP_524481); Dβ1 (NP_523927); Dβ2 (NP_524483); expressed in transfected cells; host or cells: Xenopus laevis oocytes (cRNA injection)
Method: as §1, §2, §3, §4, §5

[11] = biological target: T11, Dα2/Dα3/Dβ1/Dβ2/Dβ3 nAChR; experiment: as above; assay type: cell-based, D. melanogaster; conditions: mean ± standard error (n = 5)
T11 construct: Dα2 (NP_524482); Dβ1 (NP_523927); Dβ2 (NP_524483); expressed in transfected cells; host or cells: Xenopus laevis oocytes (cRNA injection)
Method: as §1, §2, §3, §4, §5

[12] = biological target: Dα1/Dα2/Dα4/Dβ1/Dβ2 nAChR; conditions: mean ± standard error (n = 5); for Imax: normalised to maximum ACh response
Method: as §1, §2, §3, §4, §5

[13] = biological target: Dα1/Dα3/Dα4/Dβ1/Dβ2 nAChR; conditions: mean ± standard error (n = 5); for Imax: normalised to maximum ACh response
Method: as §1, §2, §3, §4, §5

[14] = biological target: Dα2/Dα3/Dα4/Dβ1/Dβ2 nAChR; conditions: mean ± standard error (n = 5)
Method: as §1, §2, §3, §4, §5

[15] = normalised to maximum ACh response

Compound `CC(=O)OCC[N+](C)(C)C` [ACh, acetylcholine] has an Imax ([1]; efficacy) of 1, an Imax ([2]; efficacy) of 1 and an Imax ([3]; efficacy) of 1. The Imax ([4]; efficacy) was 1, the Imax ([5]; efficacy) was 1 and the Imax ([6]; efficacy) was 1. The Imax ([7]; efficacy) was 1 and the Imax ([8]; efficacy) was 1.

In the case of `CN/C(=N\[N+](=O)[O-])NCc1cnc(Cl)s1` [Clothianidin, clothianidin], the Imax ([1]; efficacy) is reported as 0.812, the pEC50 [1] is reported as 6.59 ± 0.07 and the Imax [1, 15] is reported as 0.812 ± 0.019. The Imax ([1]; normalised to maximum ACh response, listed as clothianidin) was 0.812, the Imax ([2]; efficacy) was 0.699 and the EC50 ([2]; read-out: pEC50 (converted)) was 8510 nM. The Imax [2, 15] was 0.699 ± 0.034, the Imax ([3]; efficacy) was 0.800 and the EC50 [3] was 490 nM. For the same compound, the Imax [3, 15] was 0.800 ± 0.033, the pEC50 [9] was 5.67 ± 0.11 and the Imax [9] was 0.974 ± 0.041. The Imax ([9]; listed as clothianidin) was 0.974, the pEC50 [10] was 7.60 ± 0.12 and the Imax [10, 15] was 0.531 ± 0.026. For the same compound, the Imax ([4]; efficacy) was 0.508, the EC50 [4] was 74.1 nM and the Imax [4, 15] was 0.508 ± 0.015. The Imax ([5]; efficacy) was 0.360, the Imax [5, 15] was 0.360 ± 0.016 and the EC50 ([5]; read-out: EC50) was 229 nM. The EC50 [6] was 155 nM, the Imax [6, 15] was 0.882 ± 0.076 and the Imax ([6]; efficacy) was 0.882. The Imax ([7]; efficacy) was 0.634, the EC50 [7] was 51.3 nM and the Imax [7, 15] was 0.634 ± 0.020. The pEC50 [11] was 7.46 ± 0.06, the Imax [11, 15] was 0.695 ± 0.014 and the Imax [8, 15] was 0.492 ± 0.016. For the same compound, the EC50 ([8]; read-out: EC50) was 34.7 nM, the Imax ([8]; efficacy) was 0.492 and the pEC50 [12] was 6.72 ± 0.09. For the same compound, the Imax [12] was 1.001 ± 0.031, the Imax ([12]; listed as clothianidin) was 1.001 and the pEC50 [13] was 6.94 ± 0.06. The Imax [13] was 0.425 ± 0.008, the Imax ([13]; listed as clothianidin) was 0.425 and the pEC50 [14] was 7.11 ± 0.12. It also gave an Imax [14, 15] of 0.912 ± 0.041.
